Laboratory results from PubChem BioAssay AID179 (DTP/NCI, 2004).
Activity calls are given as the source filed them.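 How the source made its calls: active means compounds giving half or more protection of infected cells from virus-caused growth loss, again on retest; inactive means the rest.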 Where a SMILES comes first, the peptide text is derived from it. [ ]: non-standard residue; d: D form. The star is where a group is joined. ξ: configuration not given here. ξPhe(4-NO2) = NC(Cc1ccc([N+](=O)[O-])cc1)C(=O)O; Boc = CC(C)(C)OC(=O)*; OSu = O=C1CCC(=O)N1O*

Tested on: CEM cells HIV-1 protection, formazan growth assay
Test: NCI AIDS Antiviral Assay
Conditions: for IC50: measured here: growth of uninfected CEM cells
In short: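 Screen of anti-HIV-1 activity in human CEM cells using a formazan-based growth measurement at five drug concentrations. Hits with 50% or greater protection were repeated, and confirmation required reproducible complete protection.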

SMILES	EC50 [µM]	IC50 [µM]	outcome
Nc1nc2n(n1)C(=O)C(=O)N2	> 115	> 115	
C(/C=N/NC1=NCCN1)=N\NC1=NCCN1	> 200	> 200	
CCOCC(=O)N(C)c1cccc2c3c(n(C)c12)CCCCC3			inactive
Cc1cc(C)c2c(O)c(S(=O)(=O)c3ccc(Cl)cc3)c(=O)oc2c1	> 200	77.6	
CC1(C)[C@@H]2CC[C@]13CC(=O)O[C@@H]3C2	> 724	> 724	
COc1ccccc1OCc1nnc(SCC(=O)O)n1-c1ccccc1	> 676	> 676	
CC(=O)[CH-]C(=O)c1ccccc1.CC(=O)[CH-]C(=O)c1ccccc1.[CH2-]CCC.[CH2-]CCC.[Sn+4]	> 46.8	0.776	
CC(=O)C(=[N+]=[N-])C(=O)N(C)CCC#N	> 200	> 200	
Cc1ccc(C(=O)Nc2ccc(S(=O)(=O)O)c3cc(S(=O)(=O)O)cc(S(=O)(=O)O)c23)cc1NC(=O)c1cccc(NC(=S)Nc2cccc(C(=O)Nc3cc(C(=O)Nc4ccc(S(=O)(=O)O)c5cc(S(=O)(=O)O)cc(S(=O)(=O)O)c45)ccc3C)c2)c1	100	537	
O=C1CC(=O)NC(=NN2C(=O)/C(=C/c3ccc(Cl)c(Cl)c3)N=C2c2ccccc2)N1	> 200	21.9	
C=Cc1ccc(C)[n+](C[Si](C)(C)O[Si](C)(C)C[n+]2cc(C=C)ccc2C)c1	> 380	245	
COC(=O)CCC1=CCC2(SC)C(=O)Nc3cccc1c32 (centres undefined)	> 200	> 200	
O=C(O)c1cscc1-c1cccc2ccccc12	> 200	158	
NCCN.O=C([O-])C(=O)[O-].O=C([O-])C(=O)[O-].[Co+3].[K+]	> 372	269	
CCCN(CCC)C(=S)N/N=C/c1cccc(C)n1	> 200	0.0631	
O=C(Cn1cc(F)c(=O)[nH]c1=O)C12CC3CC(CC(C3)C1)C2	> 200	186	
CCNC(=O)CNC(=O)C(Cc1ccc([N+](=O)[O-])cc1)NC(=O)OC(C)(C)C (centres undefined) (Boc-[ξPhe(4-NO2)]-Gly-NHEt)	162	813	
CC1=NNC(N)=N/C1=C\C(Sc1ccc(Cl)cc1)c1ccc([N+](=O)[O-])cc1 (centres undefined)	> 117	30.9	
Nc1nncc2[nH]cnc12	> 200	10	
N#CC1=C2Oc3ccccc3N2C(c2ccccc2)C(C#N)=C1N (centres undefined)	> 200	> 200	
CCN(CC)/[N+]([O-])=N/OCC(C)O (centres undefined)	> 8130	> 8130	
Nc1cc2c(cc1-n1cccc1)oc1ccccc12	> 200	19.5	

SMILES	EC50 [µM]	IC50 [µM]	outcome
CCCCCCCCCCCC(=O)OCC1OC(n2cc(F)c(=O)[nH]c2=O)C(N)C(OC(=O)CCCCCCCCCCC)C1O (centres undefined)	> 3.02	> 3.02	
O=C(O)/N=N\C(=O)O	> 151	> 151	
CC1(C)Oc2cc(OCc3ccccc3)ccc2C2Oc3cc(OCc4ccccc4)c(O)cc3C21 (centres undefined)	> 200	79.4	
COC(OC)c1cccc2c1C(=O)CCC1(O)c3ccccc3C1C2 (centres undefined)	> 155	138	
CC12CCC3C(CCC4=CC(OC5OC(CO)C(O)C(O)C5O)CCC43C=O)C1(O)CCC2c1ccc(=O)oc1 (centres undefined)	> 0.02	0.00316	
CCOC(=O)N1CCC2(CC1)CC(=O)N(Nc1ccccc1)C2=O	> 200	36.3	
c1ccc2c(c1)NC1CCN2C1 (centres undefined)	> 813	> 813	
CCC1=NC(C(F)(F)F)(C(F)(F)F)N=C(N2CCOCC2)O1	> 200	> 200	
Cn1c(=O)n2n(c1=O)[C@@H](c1ccccc1)[C@H]2c1ccccc1	> 200	91.2	
CCOC(=O)C(NC(=O)Nc1ccccc1F)(OC)C(F)(F)F (centres undefined)	> 200	> 200	
O=C(OCC(Cl)(Cl)Cl)OCC(Cl)(Cl)Cl	> 200	> 200	
O=C(CC(=O)C(=O)CC(=O)OCc1ccccc1)OCc1ccccc1	> 105	89.1	
CC1(C)CN=C(Nc2ccc(F)cc2)S1	> 200	> 200	
CCOC(=O)C12c3[nH]c4ccccc4c3CCN1CC1=NOC(=O)C12 (centres undefined)	> 132	> 132	
C=CCCCCOC1C=CC(O)C(CO)O1 (centres undefined)	> 200	> 200	
O=C(/C=C/c1ccco1)c1ccc(NCc2nc3ccccc3[nH]2)cc1	> 20.9	> 20.9	
Cc1[nH]c(=O)[nH]c(=O)c1/C=C/C(=O)NC(CO)CS(=O)Cc1ccccc1 (centres undefined)	> 200	> 200	
CCCNC1=C2C[C@@H](C)C[C@@H](OC)[C@@H](OC(=O)CCCN)[C@H](C)/C=C(\C)[C@@H](OC(N)=O)[C@H](OC)/C=C\C=C(/C)C(=O)NC(=CC1=O)C2=O	> 200	11.5	
c1cc(CSP234N5CCN2CCN3CCN4CC5)cc(CSP234N5CCN2CCN3CCN4CC5)c1	> 100	25.1	
O=C1C=C(N2CCOCC2)C(=O)c2nccnc21	> 15.5	10.2	
CC(C)C(Sc1nc(-c2ccccc2)c(-c2ccccc2)[nH]1)C(=O)N/N=C/c1ccc([N+](=O)[O-])cc1 (centres undefined)	> 14.5	> 14.5	
O=C(O)c1ccccc1NC(=O)C1CCCCC1			inactive

SMILES	EC50 [µM]	IC50 [µM]	outcome
CCN1C(=O)N(C)C(O)c2c1nc1ccccn1c2=O (centres undefined)	> 182	11.5	
CCOP(=S)(N/N=C1/C2(C)CCC(C2)C1(C)C)OCC (centres undefined)	> 200	20	
N#CCCCCCOCCOCCOCCOCCOCCCCCC#N			inactive
CCOc1ccc2c(ccc(/C=C\c3cc(C)c4cccnc4c3O)[n+]2C)c1	> 52.5	0.955	
Cc1ccc(S(=O)OC2C3CC4CC(C3)CC2C4)cc1 (centres undefined)			inactive
CC(=O)Nc1cc2c(O)c(N=Nc3ccc(C(=O)Nc4ccc(N=Nc5ccc(S(=O)(=O)O)cc5)cc4)cc3)c(S(=O)(=O)O)cc2cc1S(=O)(=O)O			active
COC(=O)c1ccc(Cc2cc(Cc3ccc(C(=O)OC)cc3)cc(Cc3ccc(C(=O)OC)cc3)c2)cc1	> 25.1	> 25.1	
CN(C)c1nc(N)c(C#N)c(C#N)c1C#N	> 200	8.71	
COc1cccc2c(Nc3ccc(S(=O)(=O)N=C(N)N)cc3)c3ccc([N+](=O)[O-])cc3nc12	> 200	11	
Clc1ccc(CSc2cnnc3ccccc23)cc1	> 61.7	> 61.7	
CN1C(=NCCO)NS(=O)(=O)c2ccccc21	> 977	> 977	
CN(C)c1ccc(C(=S)c2ccc(N(C)C)cc2)cc1	> 200	0.741	
NCCCCC(NC(=O)C(N)Cc1ccc(O)cc1)C(=O)NC(CCCCN)C(=O)NC(CCCCN)C(=O)ON1C(=O)CCC1=O (centres undefined) (H-YKKK-OSu; configuration not given here)	162	> 200	
COC(=O)C1C(C(=O)OC)N(Cc2ccccc2)C(=O)N1Cc1ccccc1 (centres undefined)	> 200	120	
COC(=O)N/N=C(\Cc1ccccc1)CN(C)C	> 200	> 200	
COC1/C=C/OC2(C)Oc3c(C)c(O)c4c(O)c(c(/C=N/n5c(=O)[nH]c6ccccc6c5=O)c(O)c4c3C2=O)NC(=O)/C(C)=C\C=C\C(C)C(O)C(C)C(O)C(C)C(OC(C)=O)C1C (centres undefined)	> 200	29.5	
NCCSSc1ccccc1[N+](=O)[O-]	> 200	11.2	
NC(=Nc1ccc(O)cc1)S(=O)(=O)O	63.1	97.7	
CN(O)C(=O)/C=C/c1ccc(OCc2cccc(Cl)c2)cc1	> 200	46.8	
O=[P+](O)c1cccs1			inactive
Cn1c(=O)c(C(=O)NC(=O)NCCCCCOC(=O)CCCCCCCCCCC(=O)OCCCCCNC(=O)NC(=O)c2cn(Cc3ccccc3)c(=O)n(C)c2=O)cn(Cc2ccccc2)c1=O	> 7.41	> 7.41	
O=P(O)(O)c1ccccc1Oc1ccccc1	> 200	> 200	

SMILES	EC50 [µM]	IC50 [µM]	outcome
Cc1cccc(N2CCN(S(=O)(=O)c3ccc(Cl)cc3)C2=N)c1C	> 200	> 200	
CC1=NN(c2ccccc2)C(=O)C1N=Nc1ccc(S(=O)(=O)Nc2ncccn2)cc1 (centres undefined)	> 200	36.3	
CC(C)OP(=O)(OC(C)C)C(=Nc1ccccc1)NNc1ccc([N+](=O)[O-])cc1	> 32.4	21.9	
C/C(=N\NS(=O)(=O)c1ccc(C)cc1)C(CN1CCCCC1)C(c1ccccc1)c1c(O)c2ccccc2oc1=O (centres undefined)	> 58.9	49	
CCOC(=O)c1nc2cc(F)c(F)cc2nc1NCc1cc(OC)c(OC)c(OC)c1	> 100	> 100	
CC1=NN(C(=O)c2ccccc2O)C(=O)C1N=Nc1ccccc1C(=O)O (centres undefined)			inactive
COC(=O)/C(=C/CC(N=C(c1ccccc1)c1ccccc1)C(=O)OC)N=C(c1ccccc1)c1ccccc1 (centres undefined)	> 9.77	> 9.77	
CCCC1C(C#N)(C#N)C1(C#N)C#N	> 200	2.69	
CCOC(=O)/C(C#N)=C1\N[C@H](C(=O)OCC)CO1	> 977	> 977	
C1OC1CN1CCC(C2CCN(CC3CO3)CC2)CC1 (centres undefined)	> 200	0.269	
COC(=O)[C@]12CSC[C@H]1C[C@H](c1cccc3ccccc13)N2	> 200	> 200	
Nc1cc(-c2ccccc2)nn1-c1nsc2ccccc12	> 17.8	> 17.8	
CC(CCC(C)C(=O)O)C(=O)O (centres undefined)	> 1450	> 1450	
CSc1nc(=O)cnn1C	> 200	> 200	
CN1C(CCl)Nc2cc(Cl)c(S(N)(=O)=O)cc2S1(=O)=O (centres undefined)	> 363	64.6	
NC(=O)c1ccc[c]([Sb](=[O])([OH])[OH])c1	10.5	398	
COC(=O)C1CCC(=O)N1C(c1ccccc1)c1cc(OC)c(OC)c(OC)c1 (centres undefined)	> 200	34.7	
CCN(CC)CCCNc1nccc2c(C)c3c(cc12)c1cnccc1n3C			inactive
CSC(=Nc1cc2ccccc2c2ccccc12)NC#N	> 34.7	26.9	
CC(=O)/C(=C/N1C(=O)CC(=O)NC1=S)C(=O)Nc1ccccc1	> 200	> 200	
